Assay results as given in US20120149708A1, “MODULATORS OF VIRAL TRANSCRIPTION, AND METHODS AND COMPOSITIONS THEREWITH” (George Mason University, priority 2010, published 2012).
Entries after “also recorded” stand apart in the source; their conditions may differ.

Legend:
HIV-1 = assay: Viral inhibition (HIV-1); assay type: cell-based; conditions: versus Cyc202
[1] = test system: infected ACH2, J1.1, OM10.1, U1 cells; assay: MTT assay, infected cells; assay type: cell-based; conditions: 50 nm and 10 μM
Description: (§1) FIGS. 1 and 2 show screening results of CR8 derivatives on Tat-dependent transcription HIV-1 LTR. […] TZM-bl cells were transfected with 1 ug of Tat and treated the next day with DMSO, or the indicated CR8 derivative compounds at 50 nm. 48 hrs-post drug treatment, luciferase activity of the firefly luciferase was measured with the BrightGlo Luciferase Assay and luminescence was read from a 96 well plate on an EG&G Berthold luminometer. Assays were performed in triplicate, average and standard deviations are shown.
Quantitative MTT assays were performed (FIG. 2), to further validate the cell growth inhibitory activity of certain Formula I compounds. In this study, cultured, infected ACH2, J1.1, OM10.1, U1 and uninfected CEM, Jurkat T-cells, and U937 cells were brought in contact with Formula I compounds CR8, MRT-033, and BJFP1154 (CR8#13). Cell growth inhibition study was performed at two different concentrations of the inventive compounds, a low concentration of 50 nm, and high concentration of 10 μM.

HIV-1 LTR = assay: Luciferase assay of Tat-dependent HIV-1 LTR transcription in TZM-bl cells; assay type: cell-based; conditions: TZM-bl cells transfected with Tat, 50 nm, 48 hrs
Description: as §1
TZM-bl cells were transfected with pc-Tat (0.5 μg) using Attractene reagent (Qiagen) according to the manufacturers' instructions. Twenty-four hours later, cells were treated with DMSO or the indicated compound. Forty-eight hours-post drug treatment, luciferase activity of the firefly luciferase was measured with the BrightGlo Luciferase Assay (Promega).
These cells were brought into contact with 18 Formula I compounds.
Briefly, the addition of Tat protein enables activated transcription of HIV-1 promoter driving luciferase in these cells. Treated cells were assayed at 48 hrs after Tat transfection and drug treatment.

[2] = test system: CIITA, IL-8, CAD, MCL-1, Cyclin D1, and PBX-1; assay type: cell-based
Description: 293T cells were treated with three different concentrations of CR8#13 (20 nm, 50 nm, and 200 nm). Cells were processed 48 hrs-post treatment for RT-PCR. Effector cdk9 genes such as CIITA, IL-8, CAD, MCL-1, Cyclin D1, and PBX-1 were used in the RT-PCR.
For mRNA analysis of cdk9 related genes following drug treatments, total RNA was isolated from cells using Trizol (Invitrogen) according to the manufacturer's protocol. A total of 1 μg of RNA from the RNA fraction was treated with 0.25mg/ml DNase I for 60 min, followed by heat inactivation at 65° C. for 15 min. A total of 1 μg of total RNA was used to generate cDNA with the iScript cDNA Synthesis kit (Bio-Rad) using oligo-dT reverse primers.
A determination whether inhibition cdk9 by compounds of the present invention altered the responsiveness of cdk9 dependent cellular genes, was made by the present inventor by testing the effect of CR8#13 (BJFP1154), of viral transcriptional activity utilizing a known set of cellular and viral genes.

integrated HIV-1-Luc = assay: Luciferase assay in TSA treated TZM-bl cells; assay type: cell-based; conditions: TSA and CR8#13 versus TSA alone
Description: Luciferase activity increased with TSA treatment and then decreased post-CR8#13 treatment.
To observe the effect of drug on heterochrmatin formation, the present inventor used a ChIP assay. Briefly, TZM-bl cells were treated with TSA (FIGS. 16 and 17), and then treated with CR8#13.

TAR microRNA = assay: RNase protection assay for TAR and TAR miRNA in TNF treated ACH2 cells; assay type: cell-based, HIV-1; conditions: CR8#13 50 nm compared to Flavopiridol 50 nm, 48 hrs
Excerpt: Ten micrograms of total RNA from TNF treated CEM (lane 1) and TNF treated ACH2 cells (lanes 2-6) were hybridized to a radiolabeled TAR 5′ probe and then treated with RNase A. Arrows indicate the probe protected by TAR at 27 nucleotides and the probe protected by a TAR miRNA at approximately 22 nt. Cyc202 concentration at 500 nm, CR8 at 100 nm, CR8#13 at 50 nm, and Flavopiridol at 50 nm were used for these experiments.
Total RNA was extracted from TNF-treated CEM and ACH2 cells follow by drug treatment with Cyc202 (500 nm), CR8 ([…]), CR8#13 (50 nm), and Flavopiridol (50 nm) for 48 hrs using Trizol reagent (Invitrogen). RNase protection assays were performed as previously described (Klase et al, 2007).
RNA polymerase II associated with HIV-1 promoter, however, is phosphorylated on both Ser2 and 5 in the presence of Tat (see Zhou et al, 2004). In order to ascertain whether or not cells treated with CDK inhibitors according to the present invention produce additional TAR derived miRNA, the inevntor utilized RNase protection assays to detect small RNA fragments corresponding to the TAR sequence.
Briefly, a probe complementary to the entire length of the 5′ portion of the TAR stem loop was designed, which would detect the generation of ˜21 nt RNAs from any position within that sequence. […]

| Structure (SMILES) | potency relative to Cyc202 (viral inhibition) (HIV-1) | cell killing of infected cells (MTT) [1] | inhibition of HIV-1 LTR transcription (luciferase) (HIV-1 LTR) | transcription of cdk9 responsive genes [2] | Luciferase activity (integrated HIV-1-Luc) | levels of TAR and miTAR RNA (RPA) (TAR microRNA) |
| --- | --- | --- | --- | --- | --- | --- |
| CC[C@@H](CO)Nc1nc(NCc2ccc(-c3ccccn3)cc2)c2ncn(C(C)C)c2n1 [CR8] | roughly 25 times | significant cell killing of infected cells over uninfected cells | – | – | – | – |
| CC(C)c1cnn2c(NCc3ccc(-c4ccccn4)cc3)nc(NC[C@H](O)CO)nc12.O=C(O)/C=C/C(=O)O [BJFP1154] | – | – | greatest transcriptional inhibition; also recorded: significant inhibition of HIV-1 transcription | did not inhibit transcription of genes that are cdk9 responsive | decrease Luciferase activity | Higher levels of TAR and miTAR RNA |
